Source: patent US20220089578A1, “COMPOUNDS AS GLP-1R AGONISTS” (Terns Pharmaceuticals, Inc., priority 2020, published 2022)

Each molecule was assayed against T1, human GLP-1R (Homo sapiens, UniProt P43220) (assay: GLP-1R Cell Assay 2: CHO-K1_hGLP-1Rlow_clone10 cells, LANCE Ultra cAMP TR-FRET assay). Conditions: Table 3, percent activation relative to control GLP-1 peptide agonist.
Assay type: cell-based
Set-up: expressed in transfected cells
Experimental: Stable cell lines expressing high and low GLP-1R surface expression were generated in CHO-K1 cells transfected (Fugene 6) with a puromycin selectable DNA plasmid encoding human GLP-1R receptor (accession number: NM_002062.5) under control of an EF1A promoter. Transfected cells were seeded into 24-well plates (9,000 cells/well) containing complete medium and incubated in a humidified incubator at 37° C. with 5% carbon dioxide. After overnight incubation, medium was replaced with complete medium supplemented with puromycin (6 μg/mL) and refreshed every 2-3 days to select for stably transfected cells. Individual pools of selected cells were expanded prior to analysis for responsiveness to GLP-1 control peptide using a TR-FRET assay to detect cAMP (LANCE Ultra cAMP Assay, Perkin Elmer). Briefly, cells were collected in Versene solution, plated in 384-well plates (1,000 cells/well) and combined with serially diluted GLP-1R control peptide (10 nL) using an acoustic dispenser (ECHO). Plates were incubated for 30 minutes at 25° C. prior to the addition of EU-cAMP tracer (5 μL) and Ulight-anti-cAMP (5 μL) reagents to each well, followed by 15 minutes incubation at 25° C. TR-FRET signal was detected using an EnVision Multimode Plate Reader (excitation=320 nm; emission=615 and 655 nm). Dose-response curves were used to generate EC50 values as a measure of responsiveness to the GLP-1R control peptide. Selected cell lines were monitored for responsiveness over multiple passages to ensure stability. […] Briefly, GLP-1R expression was analyzed by flow cytometry using a fluorescein-labeled Exendin-4 peptide fluorescent probe (FLEX). Cells were harvested in Versene solution and washed 3-times with PBS+0.5% BSA before incubation with FLEX reagent (10 μM) for 2 hours at room temperature. After incubation, cells were washed 3-times in PBS+0.5% BSA before final resuspension in PBS prior to analysis by flow cytometry to measure FLEX mean fluorescence intensity (MFI) as a measure of GLP-1R expression on the cell surface.
For compound testing in the CHO-K1_hGLP-1Rlow_clonel0 cell lines, cells were seeded in 384-well plates (1,000 cells/well). Test compounds were serially diluted in DMSO (10-point, 3-fold dilution), added to wells using an ECHO dispenser (10 nL/well) and plates were centrifuged for 1 min and agitated for 2 min at room temperature prior to 30-minute incubation at 25° C. After incubation, Eu-cAMP (5 p,L) and Ulight-anti-cAMP (5 μL) reagents were added to each well, followed by centrifugation for 1 minute, agitation for 2 minutes at room temperature, and final incubation of the plates at 25° C. for 15 minutes. Plates were read using an EnVision microplate reader (excitation=320 nm; emission=615 and 655 nm). Dose-response curves were generated from duplicate wells based on percent activation calculated relative to a control GLP-1 peptide agonist that was run in parallel. EC50 values were determined by fitting percent activation as a function of compound concentration using the Hill equation (XLfit).

T1 sequence (P43220 24-463): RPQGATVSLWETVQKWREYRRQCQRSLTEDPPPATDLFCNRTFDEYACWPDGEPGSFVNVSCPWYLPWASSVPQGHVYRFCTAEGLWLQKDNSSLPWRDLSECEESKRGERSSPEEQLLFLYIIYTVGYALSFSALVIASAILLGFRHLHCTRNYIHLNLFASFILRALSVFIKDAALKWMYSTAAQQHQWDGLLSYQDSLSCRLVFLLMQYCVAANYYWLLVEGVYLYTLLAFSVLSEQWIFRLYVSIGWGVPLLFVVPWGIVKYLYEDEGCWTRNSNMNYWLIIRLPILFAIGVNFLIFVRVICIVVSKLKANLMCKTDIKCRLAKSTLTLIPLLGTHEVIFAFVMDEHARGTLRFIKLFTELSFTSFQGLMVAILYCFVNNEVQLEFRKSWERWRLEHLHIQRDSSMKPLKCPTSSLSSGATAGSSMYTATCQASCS

SMILES | EC50 [nM]
CCn1cncc1Cn1c(CN2CC[C@]3(c4nccc(N5CCc6cc(C#N)cc(F)c6C5)n4)C[C@@H]3C2)nc2ccc(C(=O)O)cc21 (single isomer, unassigned) [Compound 186-P2] | > 10000
CCn1cncc1Cn1c(CN2CCC(c3cccnc3OCc3ccc(C(N)=O)cc3F)CC2)nc2ccc(C(=O)O)cc21 [Compound 170, 2-((4-(2-((4-carbamoyl-2-fluorobenzyl)oxy)pyridin-3-yl)piperidin-1-yl)methyl)-1-((1-ethyl-1H-imidazol-5-yl)methyl)-1H-benzo[d]imdiazole-6-carboxylic acid] | 120
N#Cc1cc(F)c2c(c1)CCN(c1cccc(C3CCN(Cc4nc5ccc(C(=O)O)cc5n4Cc4ncco4)CC3)n1)C2 [Compound 172, 2-((4-(6-(6-cyano-8-fluoro-3,4-dihydroisoquinolin-2(1H)-yl)pyridin-2-yl)piperidin-1-yl)methyl)-1-(oxazol-2-ylmethyl)-1H-benzo[d]imidazole-6-carboxylic acid] | 119
O=C(O)c1ccc2nc(CN3CCC(c4cccc(OCc5cc6cccc(C(F)(F)F)c6o5)n4)CC3)n(C[C@@H]3CCO3)c2c1 [Compound 177, (S)-1-(oxetan-2-ylmethyl)-2-((4-(6-((7-(trifluoromethyl)benzofuran-2-yl)methoxy)pyridin-2-yl)piperidin-1-yl)methyl)-1H-benzo[d]imidazole-6-carboxylic acid] | 6.73
CCn1nncc1Cn1c(CN2CCC(c3cccc(OCc4nc5c(F)cc(C#N)cc5s4)n3)CC2)nc2ccc(C(=O)O)cc21 [Compound 178, 2-((4-(6-((6-cyano-4-fluorobenzo[d]thiazol-2-yl)methoxy)pyridin-2-yl)piperidin-1-yl)methyl)-1-((1-ethyl-1H-1,2,3-triazol-5-yl)methyl)-1H-benzo[d]imidazole-6-carboxylic acid] | 7.56
O=C(O)c1ccc2nc(CN3CCC(c4cccc(Oc5ccccc5)n4)CC3)n(C[C@@H]3CCO3)c2c1 [Compound 183, (S)-1-(oxetan-2-ylmethyl)-2-((4-(6-phenoxypyridin-2-yl)piperidin-1-yl)methyl)-1H-benzo[d]imidazole-6-carboxylic acid] | > 10000
CCn1cncc1Cn1c(CN2CC[C@@]3(c4nccc(OCc5ccc(C#N)cc5F)n4)C[C@H]3C2)nc2ccc(C(=O)O)cc21 [Compound 185-P1, 2-(((1R,6S)-6-(4-((4-cyano-2-fluorobenzyl)oxy)pyrimidin-2-yl)-3-azabicyclo[4.1.0]heptan-3-yl)methyl)-1-((1-ethyl-1H-imidazol-5-yl)methyl)-1H-benzo[d]imidazole-6-carboxylic acid] | 1.69
CCn1cncc1Cn1c(CN2CC[C@]3(c4nccc(OCc5ccc(C#N)cc5F)n4)C[C@@H]3C2)nc2ccc(C(=O)O)cc21 [Compound 185-P2, 2-(((1S,6R)-6-(4-((4-cyano-2-fluorobenzyl)oxy)pyrimidin-2-yl)-3-azabicyclo[4.1.0]heptan-3-yl)methyl)-1-((1-ethyl-1H-imidazol-5-yl)methyl)-1H-benzo[d]imidazole-6-carboxylic acid] | 18.1

Further lines, results first:

EC50 [nM] | SMILES
1590 | CC1=NCC(Cn2c(CN3CCC(c4cccc(OCc5ccc(C#N)cc5F)n4)CC3)nc3ccc(C(=O)O)cc32)O1 (single isomer, unassigned) [Compound 176, 2-((4-(6-((4-cyano-2-fluorobenzyl)oxy)pyridin-2-yl)piperidin-1-yl)methyl)-1-((2-methyl-4,5-dihydrooxazol-5-yl)methyl)-1H-benzo[d]imidazole-6-carboxylic acid]
1.14 | CCn1cncc1Cn1c(CN2CCC(c3cccnc3OCc3ccc(C#N)cc3F)CC2)nc2ccc(C(=O)O)cc21 [Compound 169, 2-((4-(2-((4-cyano-2-fluorobenzyl)oxy)pyridin-3-yl)piperidin-1-yl)methyl)-1-((1-ethyl-1H-imidazol-5-yl)methyl)-1H-benzo[d]imidazole-6-carboxylic acid]
1410 | CCn1ccnc1Cn1c(CN2CCC(c3cccc(N4CCc5cc(C#N)cc(F)c5C4)n3)CC2)nc2ccc(C(=O)O)cc21 [Compound 171, 2-((4-(6-(6-cyano-8-fluoro-3,4-dihydroisoquinolin-2(1H)-yl)pyridin-2-yl)piperidin-1-yl)methyl)-1-((1-ethyl-1H-imidazol-2-yl)methyl)-1H-benzo[d]imidazole-6-carboxylic acid]
13.2 | N#Cc1cccc2c(COc3cccc(C4CCN(Cc5nc6ccc(C(=O)O)cc6n5C[C@@H]5CCO5)CC4)n3)csc12 [Compound 173, (S)-2-((4-(6-((7-cyanobenzo[b]thiophen-3-yl)methoxy)pyridin-2-yl)piperidin-1-yl)methyl)-1-(oxetan-2-ylmethyl)-1H-benzo[d]imidazole-6-carboxylic acid]
63.4 | O=C(O)c1ccc2nc(CN3CCC(c4cccc(OCc5csc6c(C(F)(F)F)cccc56)n4)CC3)n(C[C@@H]3CCO3)c2c1 [Compound 174, (S)-1-(oxetan-2-ylmethyl)-2-((4-(6-((7-(trifluoromethyl)benzo[b]thiophen-3-yl)methoxy)pyridin-2-yl)piperidin-1-yl)methyl)-1H-benzo[d]imidazole-6-carboxylic acid]
14.5 | O=C(O)c1ccc2nc(CN3CCC(c4cccc(OCc5coc6c(C(F)(F)F)cccc56)n4)CC3)n(C[C@@H]3CCO3)c2c1 [Compound 175, (S)-1-(oxetan-2-ylmethyl)-2-((4-(6-((7-(trifluoromethyl)benzofuran-3-yl)methoxy)pyridin-2-yl)piperidin-1-yl)methyl)-1H-benzo[d]imidazole-6-carboxylic acid]
36.6 | O=C(O)c1ccc2nc(CN3CCC(c4cccc(OCc5nc(C(F)(F)F)cs5)n4)CC3)n(C[C@@H]3CCO3)c2c1 [Compound 179, (S)-1-(oxetan-2-ylmethyl)-2-((4-(6-((4-(trifluoromethyl)thiazol-2-yl)methoxy)pyridin-2-yl)piperidin-1-yl)methyl)-1H-benzo[d]imidazole-6-carboxylic acid]
215 | CCn1cccc1Cn1c(CN2CCC(c3cccc(OCc4nc5c(F)cc(C#N)cc5s4)n3)CC2)nc2ccc(C(=O)O)cc21 [Compound 180, 2-((4-(6-((6-cyano-4-fluorobenzo[d]thiazol-2-yl)methoxy)pyridin-2-yl)piperidin-1-yl)methyl)-1-((1-ethyl-1H-pyrrol-2-yl)methyl)-1H-benzo[d]imidazole-6-carboxylic acid]
22.8 | O=C(O)c1ccc2nc(CN3CCC(c4cccc(OCc5nc(C6CC6)cs5)n4)CC3)n(C[C@@H]3CCO3)c2c1 [Compound 181, (S)-2-((4-(6-((4-cyclopropylthiazol-2-yl)methoxy)pyridin-2-yl)piperidin-1-yl)methyl)-1-(oxetan-2-ylmethyl)-1H-benzo[d]imidazole-6-carboxylic acid]
33.9 | O=C(O)c1ccc2nc(CN3CCC(c4cccc(OCc5coc6c(C(F)(F)F)cc(Br)cc56)n4)CC3)n(C[C@@H]3CCO3)c2c1 [Compound 182, (S)-2-((4-(6-((5-bromo-7-(trifluoromethyl)benzofuran-3-yl)methoxy)pyridin-2-yl)piperidin-1-yl)methyl)-1-(oxetan-2-ylmethyl)-1H-benzo[d]imidazole-6-carboxylic acid]
646 | CCn1cncc1Cn1c(CN2CC[C@@]3(c4nccc(N5CCc6cc(C#N)cc(F)c6C5)n4)C[C@H]3C2)nc2ccc(C(=O)O)cc21 [Compound 186-P1]

Each molecule was assayed against T1, human GLP-1R (assay: GLP-1R Cell Assay 1: cAMP Hunter CHO-K1 GLP1R Gs cell line, HitHunter cAMP assay). Conditions: Table 3; cAMP Hunter CHO-K1 GLP1R Gs cells; percent activity normalized to Exendin-4.
Assay type: cell-based
In short: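 Luminescent enzyme-fragment-complementation immunoassay quantified cellular cAMP after 30-60 min compound exposure at 37 °C in HBSS/10 mM HEPES. Data from duplicate runs were normalised to Exendin-4 and fitted nonlinearly for EC50.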

SMILES | EC50 [nM]
CCn1cncc1Cn1c(CN2CC[C@]3(c4cccc(N5CCc6cc(C#N)cc(F)c6C5)n4)C[C@@H]3C2)nc2ccc(C(=O)O)cc21 [Compound 184-P2, 2-(((1S,6R)-6-(6-(6-cyano-8-fluoro-3,4-dihydroisoquinolin-2(1H)-yl)pyridin-2-yl)-3-azabicyclo[3.1.0]heptan-3-yl)methyl)-1-((1-ethyl-1H-imidazol-5-yl)methyl)-1H-benzo[d]imidazole-6-carboxylic acid] | 0.414
